According to patent publication US9120814B2, “Compounds with embedded benzopyran motif for core structures and preparation method thereof” (SNU R&DB FOUNDATION, priority 2006, dated 2015):

Tests used:
[1] = molecular target: T1, RAR-related orphan receptor α (RORα) (Homo sapiens, UniProt P35398); assay: Agonistic effect on RORα
T1 sequence (P35398 1-523): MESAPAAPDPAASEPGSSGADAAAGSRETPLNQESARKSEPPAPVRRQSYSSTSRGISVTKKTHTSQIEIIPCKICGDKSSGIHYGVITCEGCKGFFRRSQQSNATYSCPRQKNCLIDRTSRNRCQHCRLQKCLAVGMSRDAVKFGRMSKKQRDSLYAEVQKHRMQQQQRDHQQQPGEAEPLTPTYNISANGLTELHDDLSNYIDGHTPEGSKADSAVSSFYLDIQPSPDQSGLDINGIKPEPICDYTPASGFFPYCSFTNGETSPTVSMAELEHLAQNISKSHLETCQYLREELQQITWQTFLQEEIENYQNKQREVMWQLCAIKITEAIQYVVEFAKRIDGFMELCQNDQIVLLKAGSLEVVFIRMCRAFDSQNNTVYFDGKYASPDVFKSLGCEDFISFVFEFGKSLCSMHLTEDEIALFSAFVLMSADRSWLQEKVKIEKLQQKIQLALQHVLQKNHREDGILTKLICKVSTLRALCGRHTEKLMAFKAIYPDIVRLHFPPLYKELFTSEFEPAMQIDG

A549 lung carcinoma cell = assay: Cell viability, CCK-8 assay, A549; format: cell-based; settings: Homo sapiens; A549 cells, 72 hr treatment; read-out: IC50 (after 72 hr treatment) A549
Experimental: (§1) The human cancer cell line (A549 lung carcinoma cell, Hela adenocarcinoma cell, U266 myeloma cell) was obtained from American Type Culture Collection (Manassas, Va. USA) and maintained in complete medium [RPMI. 1640 supplemented with heat-inactivated 10% FBS (USP, Austin, Tex., USA) and with 1% antibiotic-antimycotic solution (USP, Austin, Tex., USA)]. The cells were maintained in a humidified atmosphere of 5% CO2 and 95% air at 37° C., and cultured in T75 Flask (Nalge Nune International, Naperville, Ind., USA).
(§2) Cell viability was measured by a cell counting kit (CCK-8 assay, Dojindo, Tokyo, Japan), and the experimental procedure is based on the manufacturer's manual. The cells were cultured into 96-well plates at a density of 2×10^4 cells/well for 24 hours, followed by the treatment of the compounds of the present invention at various concentrations. […] Louis, Mo., USA)) was added to each well, and plates were incubated for additional 2 hours at 37° C. The absorbance of each well at 450 nm was measured with a reference at 630 nm using a Bio-Tek model ELx800™ microplate reader (Bio-Tek Instruments, Inc., Winooski, Vt., USA). The percentage of cell viability was calculated by following Mathematical Equation 1. […]

U266 myeloma cell = assay: Cell viability, CCK-8 assay, U266; format: cell-based; settings: Homo sapiens, U-266; U266 cells, 72 hr treatment; read-out: IC50 (after 72 hr treatment) U266
Experimental: as §1, §2

Hela adenocarcinoma cell = assay: Cell viability, CCK-8 assay, Hela; format: cell-based; settings: Homo sapiens; Hela cells, 72 hr treatment; read-out: IC50 (after 72 hr treatment) Hela
Experimental: as §1, §2

[2] = test system: prostate specific antigen (PSA) as a target protein of androgen receptor; assay: Western blot of PSA expression in LNCaP cells (FIG. 1); format: cell-based; settings: LNCaP androgen-dependent human prostate cancer cell line; compared with bicalutamide
[3] = test system: androgen receptor (AR) target gene; assay: RT-PCR of androgen receptor target gene mRNA (FIG. 2); format: cell-based

| agonistic effect of activating RORα [1] | IC50 (A549 lung carcinoma cell) | IC50 (U266 myeloma cell) | IC50 (Hela adenocarcinoma cell) | mRNA amount of NK3 transcription factor related, locus 1 (NKX3-1) [3] | mRNA amount of kallikrein-related peptidase 2 (KLK2) [3] | mRNA amount of prostate specific antigen (PSA) [3] | Structure (SMILES) | anticancer activity based on the expression amount of PSA (western blot) [2] |
| --- | --- | --- | --- | --- | --- | --- | --- | --- |
| agonistic effect | 380 nM | 460 nM | 450 nM |  |  |  | COc1ccc2c(c1O)OC(C)(C)C=C2c1ccc(Cl)cc1C [Compound 95] |  |
|  |  |  |  | decreasing | decreasing | decreasing | O=C1C2C3=C(c4ccc(O)cc4OC34CCCC4)[C@@H](O)[C@H](c3ccccc3)C2C(=O)N1Cc1ccccc1 (some centres unmarked) [Compound 96] | almost analogous to that of bicalutamide |
